Data taken from PubChem BioAssay AID1508612.

test: passive permeability, PAMPA, ADME assay (AID 1508612); settings: pH 7.4, 30.0 min, 50.0 µM

| SMILES | Papp |
| --- | --- |
| Cc1cccc(CS(=O)(=O)c2ncc(Cl)c(C(=O)Nc3nc4ccc(F)cc4s3)n2)c1 | 261 ×10⁻⁶ cm/s |
| Cc1cn2c(N)c(Cl)cc(C(=O)NCC3CCN(CC(C)C)CC3)c2n1 | 606 ×10⁻⁶ cm/s |
| CCCCCn1c(CCCNC(=O)c2ccccc2OC)nc2ccccc21 | > 1000 ×10⁻⁶ cm/s |
| CCc1oc2ccccc2c1C(=O)c1cc(Br)c(O)c(Br)c1 | 62 ×10⁻⁶ cm/s |
| CCCCCCOc1ccc(OC(=O)c2ccncc2)cc1 | 600 ×10⁻⁶ cm/s |
| O=C(CCCN1CCC(n2c(=O)[nH]c3ccccc32)CC1)c1ccc(F)cc1 | 952 ×10⁻⁶ cm/s |
| Cc1cc(C)c(C(=O)Nc2cccc([S+](=O)([O-])N3CCCCC3)c2)[nH]1 | 936 ×10⁻⁶ cm/s |
| Cc1cc2c(-c3cccc(O)c3)nc(-c3c(C)noc3C)cc2[nH]1 | > 1000 ×10⁻⁶ cm/s |
| Cc1ccnc(NC(=S)N2CCN(c3cccc(C(F)(F)F)n3)CC2)c1 | 866 ×10⁻⁶ cm/s |
| COC12C(COC(N)=O)C3=C(C(=O)C(C)=C(N)C3=O)N1CC1C2N1C (stereo unspecified) | 1.95 ×10⁻⁶ cm/s |
| COc1cc2cc(CN3CCC(N(C)C)C3)c(-c3cccc(Cl)c3)nc2cc1OC (stereo unspecified) | > 1000 ×10⁻⁶ cm/s |
| CC(C)(C)c1ccc(C(=O)N2CC(=O)Nc3ccc(F)cc3C2c2ccc(F)cc2)cc1 (stereo unspecified) | > 1000 ×10⁻⁶ cm/s |
| Nc1ncnc2c1ncn2[C@H]1O[C@@H](CO)[C@@H](O)[C@H]1N | 2.99 ×10⁻⁶ cm/s |
| O=C(Nc1ccc2oc(-c3ccccc3F)nc2c1)c1ccc([N+](=O)[O-])o1 | 38.4 ×10⁻⁶ cm/s |
| Clc1cccc(-c2ccc(-c3nnc(CCCc4ccc5cccnc5n4)o3)cc2)c1 | > 1000 ×10⁻⁶ cm/s |
| CCN1CCN(c2ncc3c(n2)CCN(Cc2cc(Br)cs2)C3)CC1 | 787 ×10⁻⁶ cm/s |
| Nc1nc2c(s1)C(c1ccc(F)cc1F)CC(=O)N2 (stereo unspecified) | 181 ×10⁻⁶ cm/s |
| CCn1cc(C(=O)N2CCN(c3cccc(Cl)c3)CC2)c2cc(OC)c(OC)cc2c1=O | 833 ×10⁻⁶ cm/s |
| O=C(Nc1nc(-c2ccccc2)cs1)c1ccncc1NS(=O)(=O)c1ccccc1Cl | > 1000 ×10⁻⁶ cm/s |
| CCOC(=O)c1[nH]c(C)c(CCC(=O)N2CCN(c3cc(C)ccc3C)CC2)c1C | > 1000 ×10⁻⁶ cm/s |
| CN(C(=O)CNC(=O)c1ccccc1OCC(=O)Nc1ccc(I)cc1)c1ccccc1 | > 1000 ×10⁻⁶ cm/s |
| COc1ccc(NC(=O)c2[nH]c(C)c(C(C)=O)c2C)cc1S(=O)(=O)Nc1cccc(C#N)c1 | 30.9 ×10⁻⁶ cm/s |
| CC(C)Oc1cccc(-c2ccnc(N3CCC(C(N)=O)CC3)n2)c1 | > 1000 ×10⁻⁶ cm/s |
| Clc1ccc(-c2noc3ncnc(N4CCCCC4)c23)cc1 | > 1000 ×10⁻⁶ cm/s |
| O=C(NCC1CCN(Cc2cccc(Cl)c2)CC1)Nc1ccc(F)c(Cl)c1 | > 1000 ×10⁻⁶ cm/s |
| O=C(c1ccco1)N1CCN(c2nc(-c3ccc(Br)cc3)cs2)CC1 | 4.09 ×10⁻⁶ cm/s |

| SMILES | Papp |
| --- | --- |
| Cc1cccc(N(C)c2nc3ccccc3c3nnc(C)n23)c1 | > 1000 ×10⁻⁶ cm/s |
| CCN(CC)C(=O)c1ccc2c(c1)ncn2-c1cccc(C)c1 | 889 ×10⁻⁶ cm/s |
| Fc1cc(Nc2nc(-c3ccncc3)nc3ccccc23)ccc1N1CCCC1 | 110 ×10⁻⁶ cm/s |
| CC(C)(C)OC(=O)N1CCN(c2ccc(NCc3ccc(-c4ccc(C#N)cc4)o3)cc2)CC1 | 338 ×10⁻⁶ cm/s |
| O=C(Nc1nc(-c2ccccn2)cs1)c1cccc(S(=O)(=O)N2CCOCC2)c1 | 657 ×10⁻⁶ cm/s |
| CC(C)(C)C1CCc2[nH]c3ccccc3c(=O)c2C1 (stereo unspecified) | 356 ×10⁻⁶ cm/s |
| COC(=O)C1=C(C)NC(=O)CC1C(=O)Nc1ccc(Cl)cc1 (stereo unspecified) | 126 ×10⁻⁶ cm/s |
| NC(=O)C1CCN(c2nccc(-c3ccc(Br)cc3)n2)CC1 | 360 ×10⁻⁶ cm/s |
| COc1cccc(Nc2nc(-c3ccncc3)nc3ccccc23)c1 | > 1000 ×10⁻⁶ cm/s |
| COc1ccc(-n2nc(C3CCCN(C(=O)c4cccc(OC)c4)C3)[nH]c2=O)cc1 (stereo unspecified) | 436 ×10⁻⁶ cm/s |
| COc1ccc(Nc2nc(-c3ccncc3)nc3ccccc23)cc1F | 107 ×10⁻⁶ cm/s |
| Cc1cc(N[S+](=O)([O-])c2ccc(NC(=O)Cc3ccc(F)c(F)c3)cc2)no1 | 6.43 ×10⁻⁶ cm/s |
| Cc1c(-c2cccc(NC(=O)c3ccc(F)c(F)c3)c2)nc2ncccn12 | 908 ×10⁻⁶ cm/s |
| CC(C)C[C@H]1C(=O)N2CCC[C@H]2[C@]2(O)O[C@](NC(=O)[C@@H]3C=C4c5cccc6[nH]c(Br)c(c56)C[C@H]4N(C)C3)(C(C)C)C(=O)N12 | 876 ×10⁻⁶ cm/s |
| CC(=O)Nc1cccc(Nc2nc3ccccc3n3c(C)nnc23)c1 | 266 ×10⁻⁶ cm/s |
| CCn1c(SCc2ccc(C#N)cc2)nnc1-c1cccc(Cl)c1 | 924 ×10⁻⁶ cm/s |
| CCCCCCCCc1ccc(CCC(N)(CO)CO)cc1 | 5.3 ×10⁻⁶ cm/s |
| Cc1ccc(C(=O)N2CCc3sc(C(=O)NC(C)c4ccccc4)cc3C2)cc1 (stereo unspecified) | 799 ×10⁻⁶ cm/s |
| CCN1CCN(c2ccc3cc(S(=O)(=O)N4CCOCC4)ccc3n2)CC1 | > 1000 ×10⁻⁶ cm/s |
| Cc1ccc(NC(=O)c2cc(-c3ccc(C)o3)nc3ccccc23)nc1 | > 1000 ×10⁻⁶ cm/s |
| Cc1ccc(S(=O)(=O)NC2CCCCC2)cc1 | 206 ×10⁻⁶ cm/s |
| COc1cccc(OC)c1C(=O)Nc1ccccc1C(=O)Nc1cccc(C(F)(F)F)c1 | 899 ×10⁻⁶ cm/s |
| CC(C)c1ccc(CC(=O)N2CCCc3ncc(C(=O)Nc4cccnc4)cc32)cc1 | 734 ×10⁻⁶ cm/s |
| Cc1cc(C)c(C(=O)Nc2cccc([S+](=O)([O-])Nc3ccc(Br)cc3)c2)[nH]1 | 737 ×10⁻⁶ cm/s |
| COC(C)(C)CCn1nc(Nc2c(C)cccc2C)c2cnc(Nc3ccc(OCCN4CCCC4)c(F)c3)nc21 | > 1000 ×10⁻⁶ cm/s |
| CN(C)c1ccc2cc(C(=O)N[C@@H](CCCN=C(N)CCl)C(=O)NCc3ccccc3)ccc2c1 | < 1 ×10⁻⁶ cm/s |

| SMILES | Papp |
| --- | --- |
| Cc1nn2c(c1-c1ccccc1-c1ccccc1)N(Cc1ccc(C(=O)O)s1)CCC2 | 109 ×10⁻⁶ cm/s |
| CC(=O)c1ccc(N2CCN(C(=O)c3ccc4c(c3)CC(=O)N4)CC2)cc1 | 40.5 ×10⁻⁶ cm/s |
| CC(=O)c1c(C)[nH]c(C(=O)Nc2cccc(S(=O)(=O)Nc3cccc(C#N)c3)c2)c1C | 68.9 ×10⁻⁶ cm/s |
| COc1ccc(-n2cnc3cc(C(=O)N4CCCCC4)ccc32)cc1 | 624 ×10⁻⁶ cm/s |
| COc1cccc(N2CCN(c3ncc4c(n3)CCN(Cc3ccc(Br)cc3)C4)CC2)c1 | 25 ×10⁻⁶ cm/s |
| CC(=O)c1c(C)[nH]c(C(=O)Nc2ccc(C)c(S(=O)(=O)N3CCCCCC3)c2)c1C | 792 ×10⁻⁶ cm/s |
| O=C1Nc2ccccc2/C1=C\c1ccc([N+](=O)[O-])cc1 | 455 ×10⁻⁶ cm/s |
| O=C1Nc2ccccc2/C1=C/c1ccnc2ccccc12 | > 1000 ×10⁻⁶ cm/s |
| O=C(CCCCCCC(=O)Nc1ccccc1)NO | 63.4 ×10⁻⁶ cm/s |
| CNc1nc(-c2ccc3c(N)n[nH]c3c2)cc(N2C[C@@H](C(=O)NC3CCCCC3)CC[C@@H]2C)n1 | 14.4 ×10⁻⁶ cm/s |
| Cc1noc(C)c1-c1ccc2ncnc(NCc3cccc(Cl)c3)c2c1 | 970 ×10⁻⁶ cm/s |
| Cc1ccc(S(=O)(=O)Nc2ccc(C)cc2C(=O)Nc2nc(-c3ccccc3)cs2)cc1 | < 1 ×10⁻⁶ cm/s |
| NC(=O)COCCN1CCN(C(c2ccccc2)c2ccc(Cl)cc2)CC1 (stereo unspecified) | 359 ×10⁻⁶ cm/s |
| Cc1ccc(S(=O)(=O)Nc2cc(Cl)ccc2C(=O)Nc2nc(-c3ccccc3)cs2)cc1 | 23.4 ×10⁻⁶ cm/s |
| Cc1cccc(CN2CCN(c3ccccn3)CC2)c1 | > 1000 ×10⁻⁶ cm/s |
| CCn1c(C(=O)NCCc2ccc(OC)cc2)cc2sccc21 | 721 ×10⁻⁶ cm/s |
| COc1ccc(S(=O)(=O)N2CCOCC2)cc1NC(=O)c1cccc(-n2cccc2)c1 | < 1 ×10⁻⁶ cm/s |
| CCCC1=Nc2cc(C(=O)NC3CCCCC3)ccc2Sc2ccc(C)cc21 | 17.1 ×10⁻⁶ cm/s |
| CC1(C)C(=O)NC2=C1C(=O)C(=O)c1ccccc12 | 12.5 ×10⁻⁶ cm/s |
| Cc1noc(C)c1-c1cc(-c2ccc3c(c2)C(=O)NC3)cn2cncc12 | 143 ×10⁻⁶ cm/s |
| CC(=O)N1CCN(c2ccc(OCc3nn(C)c(C)c3-c3cccc4c(CCCOc5cc(C)c(Cl)c(C)c5)c(C(=O)O)n(Cc5cccnc5)c34)cc2)CC1 | 370 ×10⁻⁶ cm/s |
| Cc1cc(C)cc(C(=O)Nc2ccc3c(N4CCCC4)ncnc3c2)c1 | > 1000 ×10⁻⁶ cm/s |
| NC(=O)C1CCN(c2nc(-c3ccc4c(c3)OCO4)cs2)CC1 | 740 ×10⁻⁶ cm/s |
| Cc1cn(CCN2CCN(c3ccccc3-c3cc(C#N)cc(C(=O)NCCCN4CCCC4)c3)CC2)c2ccccc12 | < 1 ×10⁻⁶ cm/s |
